Results: ChEMBL document CHEMBL4145521, “Regioselective synthesis of 3,4-diaryl-5-unsubstituted isoxazoles, analogues of natural cytostatic combretastatin A4” (Eur J Med Chem, 2018)

How the values were obtained:
Format in all cases: functional
HL-60(TB) = experiment: Cytotoxicity against human HL-60(TB) cells assessed as cell growth at 0.01 uM incubated for 48 hrs by sulforhodamine B assay relative to control; settings: HL-60, 48 h, read-out: Activity
HOP-92 = experiment: Cytotoxicity against human HOP92 cells assessed as cell growth at 0.01 uM incubated for 48 hrs by sulforhodamine B assay relative to control; settings: HOP-92, 48 h, read-out: Activity
OVCAR-3 [1] = experiment: Cytotoxicity against human OVCAR3 cells assessed as cell growth at 0.01 uM incubated for 48 hrs by sulforhodamine B assay relative to control; settings: OVCAR-3, 48 h, read-out: Activity
CCRF-CEM = experiment: Cytotoxicity against human CCRF-CEM cells assessed as cell growth at 0.1 uM incubated for 48 hrs by sulforhodamine B assay relative to control; settings: read-out: Activity
A549 = experiment: Cytotoxicity against human A549/ATCC cells assessed as cell growth at 0.1 uM incubated for 48 hrs by sulforhodamine B assay relative to control; settings: A549, 48 h, read-out: Activity
NCI-H23 = experiment: Cytotoxicity against human NCI-H23 cells assessed as cell growth at 0.1 uM incubated for 48 hrs by sulforhodamine B assay relative to control; settings: NCI-H23, 48 h, read-out: Activity
SF-539 = experiment: Cytotoxicity against human SF539 cells assessed as cell growth at 0.1 uM incubated for 48 hrs by sulforhodamine B assay relative to control; settings: SF-539, 48 h, read-out: Activity
LOX IMVI = experiment: Cytotoxicity against human LOXIMVI cells assessed as cell growth at 0.1 uM incubated for 48 hrs by sulforhodamine B assay relative to control; settings: read-out: Activity
SK-MEL-2 = experiment: Cytotoxicity against human SK-MEL-2 cells assessed as cell growth at 0.1 uM incubated for 48 hrs by sulforhodamine B assay relative to control; settings: SK-MEL-2, 48 h, read-out: Activity
OVCAR-4 = experiment: Cytotoxicity against human OVCAR4 cells assessed as cell growth at 0.1 uM incubated for 48 hrs by sulforhodamine B assay relative to control; settings: OVCAR-4, 48 h, read-out: Activity
CAKI-1 [2] = experiment: Cytotoxicity against human Caki1 cells assessed as cell growth at 0.1 uM incubated for 48 hrs by sulforhodamine B assay relative to control; settings: CAKI-1, 48 h, read-out: Activity
TK-10 = experiment: Cytotoxicity against human TK10 cells assessed as cell growth at 0.1 uM incubated for 48 hrs by sulforhodamine B assay relative to control; settings: TK-10, 48 h, read-out: Activity
DU-145 = experiment: Cytotoxicity against human DU145 cells assessed as cell growth at 0.1 uM incubated for 48 hrs by sulforhodamine B assay relative to control; settings: DU-145, 48 h, read-out: Activity
SF-268 = experiment: Cytotoxicity against human SF268 cells assessed as cell growth at 1 uM incubated for 48 hrs by sulforhodamine B assay relative to control; settings: SF-268, 48 h, read-out: Activity
786-0 = experiment: Cytotoxicity against human 786-0 cells assessed as cell growth at 1 uM incubated for 48 hrs by sulforhodamine B assay relative to control; settings: 786-0, 48 h, read-out: Activity
MCF7 = experiment: Cytotoxicity against human MCF7 cells assessed as cell growth at 1 uM incubated for 48 hrs by sulforhodamine B assay relative to control; settings: MCF7, 48 h, read-out: Activity
T47D [3] = experiment: Cytotoxicity against human T47D cells assessed as cell growth at 1 uM incubated for 48 hrs by sulforhodamine B assay relative to control; settings: read-out: Activity
NCI-H322M = experiment: Cytotoxicity against human NCI-H322M cells assessed as cell growth at 10 uM incubated for 48 hrs by sulforhodamine B assay relative to control; settings: read-out: Activity
OVCAR-3 [4] = experiment: Cytotoxicity against human OVCAR3 cells assessed as cell growth at 10 uM incubated for 48 hrs by sulforhodamine B assay relative to control; settings: OVCAR-3, 48 h, read-out: Activity
SK-OV-3 = experiment: Cytotoxicity against human SKOV3 cells assessed as cell growth at 10 uM incubated for 48 hrs by sulforhodamine B assay relative to control; settings: SK-OV-3, 48 h, read-out: Activity
UO-31 = experiment: Cytotoxicity against human UO31 cells assessed as cell growth at 10 uM incubated for 48 hrs by sulforhodamine B assay relative to control; settings: UO-31, 48 h, read-out: Activity
SK-MEL-5 = experiment: Cytotoxicity against human SK-MEL-5 cells assessed as cell growth at 100 uM incubated for 48 hrs by sulforhodamine B assay relative to control; settings: SK-MEL-5, 48 h, read-out: Activity
T47D [5] = experiment: Cytotoxicity against human T47D cells assessed as cell growth at 100 uM incubated for 48 hrs by sulforhodamine B assay relative to control; settings: read-out: Activity
MOLT-4 = experiment: Cytotoxicity against human MOLT4 cells incubated for 48 hrs by sulforhodamine B assay; settings: MOLT-4, 48 h
SNB-19 = experiment: Cytotoxicity against human SNB19 cells incubated for 48 hrs by sulforhodamine B assay; settings: SNB-19, 48 h
SNB-75 = experiment: Cytotoxicity against human SNB75 cells incubated for 48 hrs by sulforhodamine B assay; settings: SNB-75, 48 h
SK-MEL-28 = experiment: Cytotoxicity against human SK-MEL-28 cells incubated for 48 hrs by sulforhodamine B assay; settings: SK-MEL-28, 48 h
A498 = experiment: Cytotoxicity against human A498 cells incubated for 48 hrs by sulforhodamine B assay; settings: A498, 48 h
CAKI-1 [6] = experiment: Cytotoxicity against human Caki1 cells incubated for 48 hrs by sulforhodamine B assay; settings: CAKI-1, 48 h
RXF 393 = experiment: Cytotoxicity against human RXF393 cells incubated for 48 hrs by sulforhodamine B assay; settings: RXF 393, 48 h
[7] = read-out: LC50 (the source's name)
[8] = read-out: pLC50 (the source's name) (converted)

## COc1ccc(-c2nocc2-c2cc(OC)c(OC)c(OC)c2)cc1
HL-60(TB)
  growth at 0.01 µM: 105%
HOP-92
  growth at 0.01 µM: 98%
OVCAR-3 [1]
  growth at 0.01 µM: 100%
CCRF-CEM
  growth at 0.1 µM: 90%
A549
  growth at 0.1 µM: 47%
NCI-H23
  growth at 0.1 µM: 67%
SF-539
  growth at 0.1 µM: 65%
LOX IMVI
  growth at 0.1 µM: 55%
SK-MEL-2
  growth at 0.1 µM: 39%
OVCAR-4
  growth at 0.1 µM: 73%
CAKI-1 [2]
  growth at 0.1 µM: 62%
TK-10
  growth at 0.1 µM: 46%
DU-145
  growth at 0.1 µM: 71%
SF-268
  growth at 1 µM: 45%
786-0
  growth at 1 µM: 37%
MCF7
  growth at 1 µM: 19%
T47D [3]
  growth at 1 µM: 37%
NCI-H322M
  growth at 10 µM: 35%
OVCAR-3 [4]
  growth at 10 µM: -9%
SK-OV-3
  growth at 10 µM: 32%
UO-31
  growth at 10 µM: 23%
SK-MEL-5
  growth at 100 µM: -99%
T47D [5]
  growth at 100 µM: -4%
MOLT-4; read-out: GI50
  GI50: 0.708 µM
MOLT-4; [7]
  CC50: > 100 µM
MOLT-4; read-out: TGI
  TGI: > 100 µM
MOLT-4; read-out: pGI50 (converted)
  GI50: 0.708 µM
MOLT-4; [8]
  CC50: > 100 µM
MOLT-4; read-out: pTGI
  TGI: > 100 µM
SNB-19; read-out: GI50
  GI50: 0.373 µM
SNB-19; [7]
  CC50: > 100 µM
SNB-19; read-out: TGI
  TGI: > 100 µM
SNB-19; read-out: pGI50 (converted)
  GI50: 0.372 µM
SNB-19; [8]
  CC50: > 100 µM
SNB-19; read-out: pTGI
  TGI: > 100 µM
SNB-75; read-out: GI50
  GI50: 0.0772 µM
SNB-75; [7]
  CC50: > 100 µM
SNB-75; read-out: TGI
  TGI: > 100 µM
SNB-75; read-out: pGI50 (converted)
  GI50: 0.0776 µM
SNB-75; [8]
  CC50: > 100 µM
SNB-75; read-out: pTGI
  TGI: > 100 µM
SK-MEL-28; read-out: GI50
  GI50: 4.96 µM
SK-MEL-28; [7]
  CC50: > 100 µM
SK-MEL-28; read-out: TGI
  TGI: 80.8 µM
SK-MEL-28; read-out: pGI50 (converted)
  GI50: 5.01 µM
SK-MEL-28; [8]
  CC50: > 100 µM
SK-MEL-28; read-out: pTGI (converted)
  TGI: 81.3 µM
A498; read-out: GI50
  GI50: 0.0336 µM
A498; read-out: LC50
  LC50: > 100 µM
A498; read-out: TGI
  TGI: 0.816 µM
A498; read-out: pGI50 (converted)
  GI50: 0.0339 µM
A498; read-out: pLC50 (converted)
  LC50: > 100 µM
A498; read-out: pTGI (converted)
  TGI: 0.813 µM
CAKI-1 [6]; read-out: GI50
  GI50: 0.642 µM
CAKI-1 [6]; read-out: LC50
  LC50: > 100 µM
CAKI-1 [6]; read-out: TGI
  TGI: > 100 µM
CAKI-1 [6]; read-out: pGI50 (converted)
  GI50: 0.646 µM
CAKI-1 [6]; read-out: pLC50 (converted)
  LC50: > 100 µM
CAKI-1 [6]; read-out: pTGI
  TGI: > 100 µM
RXF 393; read-out: GI50
  GI50: 0.243 µM
RXF 393; [7]
  CC50: > 100 µM
RXF 393; read-out: pGI50 (converted)
  GI50: 0.245 µM
RXF 393; [8]
  CC50: > 100 µM
